According to the C3SDB collision cross section collection:
Values joined by “and” are separate entries in the source; they are usually repeats but may differ in a detail not shown here. Equal values may be shown once. Where a name gives a salt, the structure may show the parent alone.

Conditions: [M+H-H2O]+; instrument: TW; calibrated with polyalanine and drug standards

collision cross section (N2) [Å²]	SMILES
199.6	CCC(C)(C)C(=O)O[C@H]1C[C@@H](C)C=C2C=C[C@H](C)[C@H](CC[C@@H]3C[C@@H](O)CC(=O)O3)[C@H]21 [SIMVASTATIN]
254.2	COC(=O)C[C@H]1C2(C)CC34OC5(C)O[C@@]6([C@H](OC)C(OC(=O)C(C)C)[C@]7(C)C(/C(=C(/OC)C(C)C)C(=O)O[C@H]7c7ccoc7)[C@@]6(O5)[C@H](OC)[C@@]3(OC)C2OC(C)=O)[C@]14C (some centres not stated) [CHUKRASIN METHYL ETHER]
150.7	C=C1C(=O)O[C@@H]2[C@H]3O[C@]3(C)CC/C=C(\C)CC[C@@H]12 [PARTHENOLIDE]

SMILES	collision cross section (N2) [Å²]
COc1cc([C@@H]2c3cc4c(cc3[C@H](O)[C@H]3COC(=O)[C@@H]23)OCO4)cc(OC)c1OC [PICROPODOPHYLLIN]	190.9

Same assay, conditions: [M+H]+; instrument: TW; calibrated with polyalanine and drug standards

collision cross section (N2)	SMILES
140.4 Å²	C[C@]12CC[C@@H](O)C[C@H]1CCc1ccccc12 [3alpha-HYDROXY-4,4-BISNOR-8,11,13-PODOCARPATRIENE]
192 Å²	OCCN1CCN(CCCN2c3ccccc3Sc3ccc(Cl)cc32)CC1 [PERPHENAZINE]
189.5 Å²	COc1c(N2CCNC(C)C2)c(F)cc2c(=O)c(C(=O)O)cn(C3CC3)c12 (configuration not stated) [GATIFLOXACIN]
185.3 Å² and 173.3 Å²	O=C(O)c1cn(C2CC2)c2cc(N3CCNCC3)c(F)cc2c1=O [CIPROFLOXACIN]
191.7 Å²	O=C(CCCN1CCC(O)(c2ccc(Cl)cc2)CC1)c1ccc(F)cc1 [HALOPERIDOL]
146.3 Å²	C[C@H]1CC[C@@H](C(C)(C)O)CC2=C1CC[C@@H]2C [GUAIOL(-)]
280.3 Å²	CO[C@H]1/C=C/O[C@@]2(C)Oc3c(C)c(O)c4c(c3C2=O)C(=O)/C(=C/NN2CCN(C)CC2)C(=C4O)NC(=O)/C(C)=C\C=C\[C@H](C)[C@H](O)[C@@H](C)[C@@H](O)[C@@H](C)[C@H](OC(C)=O)[C@@H]1C [RIFAMPIN]
210.9 Å²	COc1c(-c2coc3cc4c(cc3c2=O)CC(O)C(C)(C)O4)ccc2c1C=CC(C)(C)O2 (configuration not stated) [MUNDULONE]
145.6 Å²	CN(C)c1nc(N(C)C)nc(N(C)C)n1 [ALTRETAMINE]
164.1 Å²	COc1ccc(-c2oc3ccccc3c(=O)c2O)cc1OC [3-HYDROXY-3',4'-DIMETHOXYFLAVONE]
169.5 Å²	CO[C@@]12[C@H](COC(N)=O)C3=C(C(=O)C(C)=C(N)C3=O)N1C[C@@H]1N[C@@H]12 [MITOMYCIN C]
124.4 Å²	O=C(O)C(O)C(O)C(=O)O (configuration not stated) [TARTARIC ACID]
219.8 Å²	O=c1cc([C@H]2Oc3cc(O)cc(O)c3C[C@H]2O)cc2c([C@H]3Oc4cc(O)cc(O)c4C[C@H]3O)cc(O)c(O)c2c1O [THEAFLAVIN]
135.9 Å²	COc1cc(O)c(C(C)=O)c(OC)c1 [XANTHOXYLIN]
123 Å²	O=c1ncnc2[nH][nH]cc1-2 [ALLOPURINOL]
130.2 Å²	O=c1oc2cc(O)ccc2s1 [TIOXOLONE]
160 Å²	CC(C)C(=O)Nc1ccc([N+](=O)[O-])c(C(F)(F)F)c1 [FLUTAMIDE]
181.1 Å²	CC(C)c1ccc2c(c1)CCC1C(C)(C(N)=O)CCCC21C (configuration not stated) [DEHYDROABIETAMIDE]
162 Å²	CCCSc1ccc2nc(NC(=O)OC)[nH]c2c1 [ALBENDAZOLE]
200.4 Å²	O=C(O)C1=C/C(=N/Nc2ccc(S(=O)(=O)Nc3ccccn3)cc2)C=CC1=O [SULFASALAZINE]
170.3 Å²	COc1ccc2c(c1)OC/C(=C\c1ccc(OC)c(O)c1)C2=O [SAPPANONE A DIMETHYL ETHER]
162.7 Å²	O=c1c(O)c(-c2ccc(O)cc2O)oc2cc(O)cc(O)c12 [MORIN]
176.6 Å²	COc1ccc2c(c1)OCC(Cc1ccc(OC)c(OC)c1)C2=O (configuration not stated) [DEOXYSAPPANONE B TRIMETHYL ETHER]
162.8 Å²	CNCCCC1c2ccccc2C=Cc2ccccc21 [PROTRYPTYLINE HYDROCHLORIDE]
178.9 Å²	CN(C)CCCC1(c2ccc(F)cc2)OCc2cc(C#N)ccc21 (configuration not stated) [CITALOPRAM]
137.8 Å²	Cc1cc(=O)n(-c2ccccc2)n1C [ANTIPYRINE]

collision cross section (N2)	SMILES
205.9 Å²	CC(=O)O[C@@H]1CC2C(C)(C)[C@H](O)CC[C@]2(C)C2CC[C@@]3(C)[C@H](c4ccoc4)OC(=O)C4OC43[C@@]21C (stereo partly drawn) [alpha-DIHYDROGEDUNOL]
143.2 Å²	CCN(CC)C(=O)c1cccc(C)c1 [DIETHYLTOLUAMIDE]
142.6 Å²	O=C1c2c(O)cccc2Cc2cccc(O)c21 [ANTHRALIN]
208.3 Å²	CC(C)CCC[C@@H](C)[C@H]1CC[C@H]2[C@@H]3C(=O)C=C4C[C@@H](O)CC[C@]4(C)[C@H]3CC[C@]12C [7-OXOCHOLESTEROL]
144 Å²	CCOC(=O)c1c(C)cc(O)c(C=O)c1O [HAEMATOMMIC ACID, ETHYL ESTER]
136.9 Å²	Cn1c(=O)c2c(ncn2C)n(C)c1=O [CAFFEINE]
208.4 Å²	C[C@@H]1CC[C@@]2(OC1)O[C@H]1C[C@H]3[C@@H]4CC=C5C[C@@H](O)CC[C@]5(C)[C@H]4CC[C@]3(C)[C@H]1[C@@H]2C [DIOSGENIN]
197.6 Å²	O=C(O)C1=CC(=C(c2ccc(O)c(C(=O)O)c2)c2ccc(O)c(C(=O)O)c2)C=CC1=O [AURIN TRICARBOXYLIC ACID]
124.9 Å²	C=C(C)[C@H]1CC=C(C(=O)O)CC1 [PERILLIC ACID (-)]
218.5 Å²	CC[C@H](/C=C/[C@@H](C)[C@H]1CC[C@H]2[C@@H]3CCC4=CC(=O)CC[C@]4(C)[C@H]3CC[C@]12C)C(C)C [STIGMASTA-4,22-DIEN-3-ONE]
206.1 Å²	O=C(O[C@@H]1Cc2c(O)cc(O)cc2O[C@@H]1c1cc(O)c(O)c(O)c1)c1cc(O)c(O)c(O)c1 [EPIGALLOCATECHIN-3-MONOGALLATE]
138.4 Å²	O=C(O)c1ccccc1OP(=O)(O)O [FOSFOSAL]
186.7 Å²	C[C@H]1C[C@H]2[C@@H]3CCC4=CC(=O)C=C[C@]4(C)[C@@]3(F)[C@@H](O)C[C@]2(C)[C@@]1(O)C(=O)CO [BETAMETHASONE]
164 Å²	Nc1nc(=S)c2ncn([C@@H]3O[C@H](CO)[C@@H](O)[C@H]3O)c2[nH]1 [THIOGUANOSINE]
187.2 Å²	CC(C)CCCC(C)C1CCC2C3CCC4CC(=O)CCC4(C)C3CCC12C (configuration not stated) [CHOLESTAN-3-ONE]
123.2 Å²	Cc1c(O)c(=O)ccn1C [DEFERIPRONE]
179.9 Å²	CC(=O)[C@@]1(O)CC[C@H]2[C@@H]3CCC4=CC(=O)CC[C@]4(C)[C@H]3CC[C@@]21C [HYDROXYPROGESTERONE]
214.8 Å²	C/C(=C\C(=O)OCCCCCCCCC(=O)O)C[C@@H]1OC[C@H](C[C@@H]2O[C@H]2[C@@H](C)[C@H](C)O)[C@@H](O)[C@H]1O [MUPIROCIN]
161.4 Å²	CCCN(CCC)S(=O)(=O)c1ccc(C(=O)O)cc1 [PROBENECID]
143.1 Å²	CC(=O)Nc1ccc(OC(C)=O)cc1 [DIACETAMATE]
162 Å²	COc1ccc([C@@H](C)C(=O)c2ccc(O)cc2O)cc1 [ANGOLENSIN (R)]
159.2 Å²	CCCOc1ccccc1-c1nc2[nH][nH]nc-2c(=O)n1 [ZAPRINAST]
190.3 Å²	COc1ccc(-c2c(O)c3c(OC)c4c(cc3oc2=O)OC(C)(C)C=C4)cc1 [ROBUSTIC ACID]
198.8 Å²	COc1c(O)cc2oc3cc(O)c(CC=C(C)C)c(O)c3c(=O)c2c1CC=C(C)C [alpha-MANGOSTIN]
145.4 Å²	COC1=CC(=O)C(C(=O)c2ccccc2)=CC1=O [2-BENZOYL-5-METHOXYBENZOQUINONE]
179.3 Å²	CSc1nc2cc(Oc3cccc(Cl)c3Cl)c(Cl)cc2[nH]1 [TRICLABENDAZOLE]

SMILES	collision cross section (N2)
CN1C(=O)CCS(=O)(=O)C1c1ccc(Cl)cc1 (configuration not stated) [CHLORMEZANONE]	158.2 Å²
COc1cc2c(c(OC)c1OC)-c1ccc(O)c(=O)cc1[C@@H](N)CC2 [TRIMETHYLCOLCHICINIC ACID]	181 Å²
CO[C@]12C[C@@H](COC(=O)c3cncc(Br)c3)CN(C)[C@@H]1Cc1cn(C)c3cccc2c13 [NICERGOLINE]	213.8 Å²
COc1cc2occc2c2oc(=O)ccc12 [ISOBERGAPTENE]	139.8 Å²
O=c1ccc2cc(O[C@@H]3O[C@H](CO)[C@@H](O)[C@H](O)[C@H]3O)c(O)cc2o1 [AESCULIN]	174 Å²
COc1cc2ccc(=O)oc2c2ccoc12 [SPHONDIN]	139.9 Å²
COc1ccc2c(c1O)-c1c(OC)c(OC)cc3c1[C@H](C2)N(C)CC3 [S-ISOCORYDINE (+)]	181.9 Å²
C[C@H]1C(=O)O[C@@H]2CCN3CC=C(COC(=O)[C@](C)(O)[C@]1(C)O)[C@H]23 [MONOCROTALINE]	172.9 Å²

Same assay, conditions: [M+Na]+; instrument: TW; calibrated with polyalanine and drug standards

SMILES	collision cross section (N2) [Å²]
CCOC(=O)CC(SP(=S)(OC)OC)C(=O)OCC (configuration not stated) [MALATHION]	171.5
CC(=O)Oc1cc2c(c(C)c1OC(C)=O)CC=C1[C@@]2(C)CC[C@@]2(C)C3C[C@](C)(C(=O)O)CC[C@]3(C)CC[C@]12C (some centres not stated) [DIHYDROCELASTRYL DIACETATE]	219.7

Same assay, conditions: [M]+; instrument: TW; calibrated with polyalanine and drug standards

collision cross section (N2) [Å²]	SMILES
212.2	C=C1CC[C@H]2C(C)(C)CCC[C@]2(C)[C@H]1CC/C(C)=C/Cn1c[n+](C)c2ncnc(N)c21 [AGELASINE D]
